Where two headings read alike, the source gives them in different places.
Experiments:
[1] = target: mTOR (Homo sapiens, UniProt P42345); test: Enzyme - mTOR Kinase Assay (Echo); type: biochemical; conditions: recombinant FLAG-tagged mTOR (1362-2549); AlphaScreen; ATP 20 μM;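 note: enzyme expressed in HEK293 cells, 2 h incubation at room temperature, read-out is phosphorylation of a biotinylated peptide substrate detected with an anti-phospho p70 S6 Kinase (T389) antibody, inhibition lowers signal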
Sequence of mTOR (P42345 1362-2549): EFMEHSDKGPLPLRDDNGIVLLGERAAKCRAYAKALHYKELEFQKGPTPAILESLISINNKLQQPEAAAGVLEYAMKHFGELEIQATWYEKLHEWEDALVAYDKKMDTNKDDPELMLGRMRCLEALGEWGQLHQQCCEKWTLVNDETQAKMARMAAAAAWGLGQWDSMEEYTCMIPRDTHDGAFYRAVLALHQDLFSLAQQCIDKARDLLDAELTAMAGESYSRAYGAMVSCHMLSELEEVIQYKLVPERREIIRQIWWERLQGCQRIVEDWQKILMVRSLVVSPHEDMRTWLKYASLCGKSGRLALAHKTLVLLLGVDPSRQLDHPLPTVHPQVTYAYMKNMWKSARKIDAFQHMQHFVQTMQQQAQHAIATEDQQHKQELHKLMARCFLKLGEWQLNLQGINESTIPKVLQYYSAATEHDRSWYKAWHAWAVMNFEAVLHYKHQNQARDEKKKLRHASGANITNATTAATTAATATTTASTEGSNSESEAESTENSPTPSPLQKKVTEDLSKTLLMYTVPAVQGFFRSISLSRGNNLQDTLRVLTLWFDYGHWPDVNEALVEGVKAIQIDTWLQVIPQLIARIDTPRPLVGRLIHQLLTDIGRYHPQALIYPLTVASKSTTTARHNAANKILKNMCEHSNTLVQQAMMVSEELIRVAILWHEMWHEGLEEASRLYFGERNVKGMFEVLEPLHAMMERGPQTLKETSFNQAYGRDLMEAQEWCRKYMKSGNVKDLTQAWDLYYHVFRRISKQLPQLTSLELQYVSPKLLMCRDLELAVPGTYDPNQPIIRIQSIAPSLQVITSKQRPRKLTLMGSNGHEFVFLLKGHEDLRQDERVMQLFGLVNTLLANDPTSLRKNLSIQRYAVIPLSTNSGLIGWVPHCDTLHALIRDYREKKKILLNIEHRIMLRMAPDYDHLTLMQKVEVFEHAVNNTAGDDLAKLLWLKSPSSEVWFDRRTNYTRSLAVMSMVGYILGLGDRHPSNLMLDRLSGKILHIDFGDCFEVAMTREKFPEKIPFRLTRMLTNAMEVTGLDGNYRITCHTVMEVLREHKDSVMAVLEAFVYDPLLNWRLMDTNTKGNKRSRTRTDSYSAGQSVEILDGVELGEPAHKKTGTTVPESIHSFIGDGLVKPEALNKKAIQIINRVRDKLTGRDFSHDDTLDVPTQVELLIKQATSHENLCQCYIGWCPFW

[2] = target: T1, ATR (Homo sapiens, UniProt Q13535); test: Enzyme Assay - ATR (Test (a)); type: biochemical;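 note: kinase activity of bead-bound ATR toward a GST-p53 N-terminal fragment substrate, 1 h at 37 °C, read by chemiluminescence, with inhibitor-free wells as control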
T1 construct: obtained from HeLa nuclear extract (CIL Biotech, Mons, Belgium) by immunoprecipitation with rabbit polyclonal antiserum raised to amino acids 400-480 of ATR; host or cells: HeLa nuclear extract
T1 sequence (Q13535 whole entry, the tested form may be a part): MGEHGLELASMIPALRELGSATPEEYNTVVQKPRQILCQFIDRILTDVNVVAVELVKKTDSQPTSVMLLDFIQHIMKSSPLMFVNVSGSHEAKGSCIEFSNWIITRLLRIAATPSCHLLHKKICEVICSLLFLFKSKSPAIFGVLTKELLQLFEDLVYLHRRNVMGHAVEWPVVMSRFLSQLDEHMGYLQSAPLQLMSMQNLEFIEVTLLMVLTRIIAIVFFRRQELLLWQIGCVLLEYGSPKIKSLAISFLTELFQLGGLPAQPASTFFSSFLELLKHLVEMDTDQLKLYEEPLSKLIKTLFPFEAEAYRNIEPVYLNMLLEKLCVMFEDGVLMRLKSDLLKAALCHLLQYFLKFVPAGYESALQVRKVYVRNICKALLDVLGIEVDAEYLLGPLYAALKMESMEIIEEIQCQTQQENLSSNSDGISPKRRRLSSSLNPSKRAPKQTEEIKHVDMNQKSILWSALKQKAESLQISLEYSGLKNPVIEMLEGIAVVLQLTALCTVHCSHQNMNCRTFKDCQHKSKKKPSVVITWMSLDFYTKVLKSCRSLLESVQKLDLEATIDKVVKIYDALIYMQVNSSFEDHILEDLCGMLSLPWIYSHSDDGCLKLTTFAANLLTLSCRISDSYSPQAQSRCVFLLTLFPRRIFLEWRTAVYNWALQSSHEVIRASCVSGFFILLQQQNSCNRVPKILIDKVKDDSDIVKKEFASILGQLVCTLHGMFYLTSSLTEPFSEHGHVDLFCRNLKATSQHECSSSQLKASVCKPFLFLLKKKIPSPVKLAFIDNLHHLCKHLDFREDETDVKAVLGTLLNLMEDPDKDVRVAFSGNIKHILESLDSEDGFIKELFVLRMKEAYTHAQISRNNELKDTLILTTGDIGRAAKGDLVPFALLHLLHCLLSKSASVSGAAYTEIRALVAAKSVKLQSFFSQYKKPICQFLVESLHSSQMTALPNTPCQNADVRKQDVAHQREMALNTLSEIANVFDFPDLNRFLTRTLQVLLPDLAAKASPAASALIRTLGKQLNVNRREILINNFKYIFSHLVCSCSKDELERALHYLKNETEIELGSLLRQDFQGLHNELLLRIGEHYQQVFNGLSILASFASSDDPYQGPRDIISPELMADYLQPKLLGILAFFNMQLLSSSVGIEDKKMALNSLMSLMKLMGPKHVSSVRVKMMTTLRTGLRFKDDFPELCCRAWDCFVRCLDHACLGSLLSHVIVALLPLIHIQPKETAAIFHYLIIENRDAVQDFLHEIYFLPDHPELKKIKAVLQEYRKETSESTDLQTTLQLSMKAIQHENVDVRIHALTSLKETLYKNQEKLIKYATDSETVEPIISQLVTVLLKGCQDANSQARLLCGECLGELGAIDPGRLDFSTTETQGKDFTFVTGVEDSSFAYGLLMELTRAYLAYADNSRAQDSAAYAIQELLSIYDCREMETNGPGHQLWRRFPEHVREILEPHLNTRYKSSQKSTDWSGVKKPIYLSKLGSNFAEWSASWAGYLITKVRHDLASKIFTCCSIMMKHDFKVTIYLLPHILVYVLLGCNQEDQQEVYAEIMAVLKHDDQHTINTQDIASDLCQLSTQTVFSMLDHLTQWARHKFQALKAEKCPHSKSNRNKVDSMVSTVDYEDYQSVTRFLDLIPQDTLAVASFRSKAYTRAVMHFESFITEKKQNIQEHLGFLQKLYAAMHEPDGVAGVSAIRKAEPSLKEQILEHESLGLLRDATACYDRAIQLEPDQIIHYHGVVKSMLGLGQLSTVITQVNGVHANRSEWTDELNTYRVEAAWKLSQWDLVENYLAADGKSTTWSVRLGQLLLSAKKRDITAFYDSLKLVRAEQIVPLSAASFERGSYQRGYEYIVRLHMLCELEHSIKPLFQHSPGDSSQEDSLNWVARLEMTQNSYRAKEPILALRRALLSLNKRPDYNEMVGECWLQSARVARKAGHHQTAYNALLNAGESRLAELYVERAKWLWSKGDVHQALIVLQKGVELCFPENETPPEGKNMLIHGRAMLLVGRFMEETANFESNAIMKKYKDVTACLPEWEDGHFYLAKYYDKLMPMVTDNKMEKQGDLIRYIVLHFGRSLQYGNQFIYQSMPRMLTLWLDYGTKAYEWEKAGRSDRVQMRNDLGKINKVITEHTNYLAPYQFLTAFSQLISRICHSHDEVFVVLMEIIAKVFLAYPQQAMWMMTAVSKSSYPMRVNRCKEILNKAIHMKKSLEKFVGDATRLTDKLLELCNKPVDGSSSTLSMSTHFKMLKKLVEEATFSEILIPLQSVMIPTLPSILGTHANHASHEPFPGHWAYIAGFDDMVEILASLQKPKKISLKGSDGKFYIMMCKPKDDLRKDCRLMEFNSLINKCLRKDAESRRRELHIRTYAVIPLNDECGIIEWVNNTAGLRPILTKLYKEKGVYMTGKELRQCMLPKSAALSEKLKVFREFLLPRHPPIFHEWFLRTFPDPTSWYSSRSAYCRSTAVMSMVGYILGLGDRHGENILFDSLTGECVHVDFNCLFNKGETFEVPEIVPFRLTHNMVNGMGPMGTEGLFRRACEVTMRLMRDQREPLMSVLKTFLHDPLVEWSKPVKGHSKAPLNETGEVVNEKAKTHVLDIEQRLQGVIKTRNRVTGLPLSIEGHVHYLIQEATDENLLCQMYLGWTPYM
T1 sequence (Q8WXE1 whole entry partner, the tested form may be a part): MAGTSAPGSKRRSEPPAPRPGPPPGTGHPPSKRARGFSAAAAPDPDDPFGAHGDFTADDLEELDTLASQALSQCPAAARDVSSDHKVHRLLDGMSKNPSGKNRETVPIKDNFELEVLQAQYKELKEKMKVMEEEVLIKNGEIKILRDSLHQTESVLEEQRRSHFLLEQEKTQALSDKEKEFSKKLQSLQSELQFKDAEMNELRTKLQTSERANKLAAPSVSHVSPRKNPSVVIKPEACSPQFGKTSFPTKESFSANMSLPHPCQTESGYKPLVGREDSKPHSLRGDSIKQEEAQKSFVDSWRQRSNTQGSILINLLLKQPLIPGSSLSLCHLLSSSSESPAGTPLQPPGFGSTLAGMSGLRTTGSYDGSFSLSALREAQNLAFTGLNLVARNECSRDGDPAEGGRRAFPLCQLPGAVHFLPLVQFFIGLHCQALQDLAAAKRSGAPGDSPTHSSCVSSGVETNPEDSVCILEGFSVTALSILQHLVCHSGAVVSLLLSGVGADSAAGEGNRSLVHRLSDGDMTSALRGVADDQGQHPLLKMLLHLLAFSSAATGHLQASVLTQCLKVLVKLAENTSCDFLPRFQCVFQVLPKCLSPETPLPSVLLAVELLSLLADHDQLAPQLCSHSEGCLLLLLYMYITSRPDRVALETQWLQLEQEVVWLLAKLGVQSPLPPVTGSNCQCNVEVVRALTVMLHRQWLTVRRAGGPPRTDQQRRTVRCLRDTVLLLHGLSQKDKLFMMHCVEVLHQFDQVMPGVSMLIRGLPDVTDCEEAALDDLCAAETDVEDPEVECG

[3] = ATR immunoprecipitated from HeLa nuclear extract, 3 μM ATP, average of individual tests, read-out: ATR average IC50

IC50 [1] | IC50 [2, 3] | SMILES | IC50 [2]
179 nM |  | CS(=O)(=O)C1(c2cc(N3CCOCC3)nc(-c3cccc4[nH]ccc34)n2)CC1 [Example 1.01, 4-{4-[1-(Methylsulfonyl)cyclopropyl]-6-morpholin-4-ylpyrimidin-2-yl}-1H-indole] | 
110 nM | 7.67 nM | Cc1cc(-c2nc(N3CCOCC3)cc(C3(S(C)(=O)=O)CC3)n2)c2cc[nH]c2c1 [Example 1.02, 6-Methyl-4-{4-[1-(methylsulfonyl)cyclopropyl]-6-morpholin-4-ylpyrimidin-2-yl}-1H-indole] | 
326 nM | 65.9 nM | CS(=O)(=O)C1(c2cc(N3CCOCC3)nc(-c3cc(C#N)cc4[nH]ccc34)n2)CC1 [Example 1.05, 4-{4-[1-(methylsulfonyl)cyclopropyl]-6-morpholin-4-ylpyrimidin-2-yl}-1H-indole-6-carbonitrile] | 
231 nM | 9.44 nM | CS(=O)(=O)C1(c2cc(N3CCOCC3)nc(-c3cccc4[nH]ccc34)n2)CCNCC1 [Example 1.08, 4-{4-[4-(Methylsulfonyl)piperidin-4-yl]-6-morpholin-4-ylpyrimidin-2-yl}-1H-indole] | 
 | 3.74 nM | CS(=O)(=O)C1(c2cc(N3CCOCC3)nc(-c3cccc4[nH]ccc34)n2)CCOCC1 [Example 1.09, 4-{4-[4-(Methylsulfonyl)tetrahydro-2H-pyran-4-yl]-6-morpholin-4-ylpyrimidin-2-yl}-1H-indole] | 
95.8 nM | 15 nM | CCS(=O)(=O)C1(c2cc(N3CCOCC3)nc(-c3cccc4[nH]ccc34)n2)CC1 [Example 1.10, 4-{4-[1-(ethylsulfonyl)cyclopropyl]-6-morpholin-4-ylpyrimidin-2-yl}-1H-indole] | 
> 90000 nM | 32.1 nM | O=S(=O)(C1CC1)C1(c2cc(N3CCOCC3)nc(-c3cccc4[nH]ccc34)n2)CC1 [Example 1.12, 4-{4-[1-(cyclopropylsulfonyl)cyclopropyl]-6-morpholin-4-ylpyrimidin-2-yl}-1H-indole] | 
1240 nM | 58.3 nM | O=S(=O)(C1CC1)C1(c2cc(N3CCOCC3)nc(-c3cccc4[nH]ccc34)n2)CCOCC1 [Example 1.13, 4-{4-[4-(cyclopropylsulfonyl)tetrahydro-2H-pyran-4-yl]-6-morpholin-4-ylpyrimidin-2-yl}-1H-indole] | 
1460 nM | 22.4 nM | O=S(=O)(C1CC1)C1(c2cc(N3CCOCC3)nc(-c3cccc4[nH]ccc34)n2)CCNCC1 [Example 1.14, 4-{4-[4-(cyclopropylsulfonyl)piperidin-4-yl]-6-morpholin-4-ylpyrimidin-2-yl}-1H-indole] | 
497 nM | 26.8 nM | C[C@H]1COCCN1c1cc(C2(S(=O)(=O)C3CC3)CCNCC2)nc(-c2cccc3[nH]ccc23)n1 [Example 2.01, 4-{4-[4-(Cyclopropylsulfonyl)piperidin-4-yl]-6-[(3S)-3-methylmorpholin-4-yl]pyrimidin-2-yl}-1H-indole] | 
467 nM | 376 nM | C[C@H]1COCCN1c1cc(C2(S(=O)(=O)C3CC3)CCOCC2)nc(-c2cccc3[nH]ccc23)n1 [Example 2.02, 4-{4-[4-(Cyclopropylsulfonyl)tetrahydro-2H-pyran-4-yl]-6-[(3S)-3-methylmorpholin-4-yl]pyrimidin-2-yl}-1H-indole] | 
99 nM | 6.21 nM | C[C@H]1COCCN1c1cc(C2(S(C)(=O)=O)CCCC2)nc(-c2cccc3[nH]ccc23)n1 [Example 2.03, 4-{4-[(3S)-3-Methylmorpholin-4-yl]-6-[1-(methylsulfonyl)cyclopentyl]pyrimidin-2-yl}-1H-indole] | 
300 nM | 4.55 nM | C[C@H]1COCCN1c1cc(C2(S(C)(=O)=O)CCOCC2)nc(-c2cccc3[nH]ccc23)n1 [Example 2.04, 4-{4-[(3S)-3-Methylmorpholin-4-yl]-6-[4-(methylsulfonyl)tetrahydro-2H-pyran-4-yl]pyrimidin-2-yl}-1H-indole] | 
97.1 nM | 6.67 nM | Cc1cc(-c2nc(N3CCOC[C@H]3C)cc(C3(S(C)(=O)=O)CC3)n2)c2cc[nH]c2c1 [Example 3.02, 6-Methyl-4-{4-[(3R)-3-methylmorpholin-4-yl]-6-[1-(methylsulfonyl)cyclopropyl]pyrimidin-2-yl}-1H-indole] | 
46.3 nM | 5.46 nM | Cc1cc2c(-c3nc(N4CCOC[C@H]4C)cc(C4(S(C)(=O)=O)CC4)n3)cccc2[nH]1 [Example 3.03, 2-Methyl-4-{4-[(3R)-3-methylmorpholin-4-yl]-6-[1-(methylsulfonyl)cyclopropyl]pyrimidin-2-yl}-1H-indole] | 
207 nM | 35.5 nM | C[C@@H]1COCCN1c1cc(C2(S(C)(=O)=O)CC2)nc(-c2cc(C#N)cc3[nH]ccc23)n1 [Example 3.04, 4-{4-[(3R)-3-Methylmorpholin-4-yl]-6-[1-(methylsulfonyl)cyclopropyl]pyrimidin-2-yl}-1H-indole-6-carbonitrile] | 
54.6 nM | 4.23 nM | C[C@@H]1COCCN1c1cc(C2(S(C)(=O)=O)CC2)nc(-c2cc(Cl)cc3[nH]ccc23)n1 [Example 3.05, 6-chloro-4-{4-[(3R)-3-methylmorpholin-4-yl}-6-[1-(methylsulfonyl)cyclopropyl]pyrimidin-2-yl}-1H-indole] | 
38 nM | 3.45 nM | C[C@@H]1COCCN1c1cc(C2(S(C)(=O)=O)CC2)nc(-c2cc(F)cc3[nH]ccc23)n1 [Example 3.06] | 
24.1 nM | 12.4 nM | COc1cc(-c2nc(N3CCOC[C@H]3C)cc(C3(S(C)(=O)=O)CC3)n2)c2cc[nH]c2c1 [Example 3.07, 6-methoxy-4-{4-[(3R)-3-methylmorphohn-4-yl]-6-[1-(methylsulfonyl)cyclopropyl]pyrimidin-2-yl}-1H-indole] | 
 | 20.2 nM | C[C@@H]1COC[C@H](C)N1c1cc(C2(S(C)(=O)=O)CC2)nc(-c2cccc3[nH]ccc23)n1 [Example 4.01, 4-{4-[(3S,5R)-3,5-Dimethylmorpholin-4-yl]-6-[1-(methylsulfonyl)cyclopropyl]pyrimidin-2-yl}-1H-indole] | 
21 nM |  | CS(=O)(=O)C1(c2cc(N3CC4CCC(C3)O4)nc(-c3cccc4[nH]ccc34)n2)CC1 [Example 5.01, 4-{4-[1-(Methylsulfonyl)cyclopropyl]-6-(8-oxa-3-azabicyclo[3.2.1]oct-3-yl)pyrimidin-2-yl}-1H-indole] | 

SMILES | IC50 [1] | IC50 [2, 3] | IC50 [2]
Cc1cc2c(-c3nc(N4CCOCC4)cc(C4(S(C)(=O)=O)CC4)n3)cccc2[nH]1 [Example 1.03, 2-Methyl-4-{4-[1-(methylsulfonyl)cyclopropyl]-6-morpholin-4-ylpyrimidin-2-yl}-1H-indole] | 166 nM |  | 27.5 nM
CS(=O)(=O)C1(c2cc(N3CCOCC3)nc(-c3cc(Cl)cc4[nH]ccc34)n2)CC1 [Example 1.06, 6-chloro-4-{4-[1-(methylsulfonyl)cyclopropyl]-6-morpholin-4-ylpyrimidin-2-yl}-1H-indole] | 71.2 nM | 15.8 nM | 
CC(C)S(=O)(=O)C1(c2cc(N3CCOCC3)nc(-c3cccc4[nH]ccc34)n2)CC1 [Example 1.11, 4-(4-{1-[(1-methylethyl)sulfonyl]cyclopropyl}-6-morpholin-4-ylpyrimidin-2-yl)-1H-indole] | 122 nM | 13.2 nM | 
